Source: article PMC6941357, “An in vitro toolbox to accelerate anti-malarial drug discovery and development” (Malaria Journal, 2020)
Values joined by “and” are separate entries in the source; they are usually repeats but may differ in a detail not shown here. Equal values may be shown once.

Tests used:
human liver microsomes = details: microsomal protein 0.5 mg/mL; ref [23]–[28] of Additional file 1; cited from earlier work
in vitro = details: human, microsomes
Protocol: The metabolic stability assay was adapted from a previously published method. […] Reactions were quenched at 2, 5, 15, 30 and 60 min by the addition of acetonitrile containing 150 ng/mL diazepam as internal standard. Control samples (containing no cofactor) were included (quenched at 2, 30 and 60 min) to monitor degradation in the absence of cofactor. Concentrations were determined by LC–MS (Additional file 1: Table S2) by comparison to the response for a single point calibration standard prepared in quenched microsomal matrix.
Test compound concentration versus time data were fit using an exponential decay function to determine the first-order rate constant for substrate depletion. Where deviation from first-order kinetics was evident, only the initial linear portion of the logarithmic profile was utilized to determine the initial degradation rate constant (k, min^−1). Each substrate depletion rate constant was then used to calculate the in vitro intrinsic clearance value (CLint, in vitro, µL/min/mg protein) using Eq.
Unbound in vitro CLint values were obtained by dividing the measured CLint by the measured fu in microsomes.

## CCOc1ccc(NC(C)=O)cc1 [phenacetin]
Human liver microsomes
  Literature CLint: 27 µL/min/mg and 22.2 µL/min/mg
In vitro; pH 7.4, Mean CLint
  microsomal CLint at 1 µM: 21.4 µL/min/mg
In vitro; pH 7.4, Range HLM CLint
  microsomal CLint at 1 µM: 13.3 to 31.1 µL/min/mg
